Results taken from patent US8765820B2, “Tranylcypromine derivatives as inhibitors of histone demethylases LSD1 and/or LSD2” (Universita Degli Studi di Roma “La Sapienza”, priority 2010, dated 2014).
Where a name gives a salt, the structure may show the parent alone. Read-outs that look alike come from different tables or passages of the source.

Tests used:
Human recombinant MAO A = Human recombinant MAO A (Homo sapiens (Human), UniProt P21397); test: MAO A inhibition, peroxidase-coupled assay with kynuramine as substrate; type: biochemical
[1] = biological target: Human recombinant LSD1/CoREST (Homo sapiens (Human), UniProt O60341); test: LSD1 inhibition, peroxidase-coupled assay with histone H3 peptide mono-methylated at Lys4; type: biochemical
Human recombinant MAO B = Human recombinant MAO B (Homo sapiens (Human), UniProt P27338); test: MAO B inhibition, peroxidase-coupled assay with benzylamine as substrate; type: biochemical; details: for MAO B Ki: 25° C., pH 7.5, no inhibition = no detectable inhibition at inhibitor saturated solutions
Mouse recombinant LSD2 = Mouse recombinant LSD2 (Mus musculus (Mouse), UniProt Q8CIG3); test: LSD2 inhibition, peroxidase-coupled assay with histone H3 peptide di-methylated at Lys4; type: biochemical; details: for Ki: pH 8.0, steady-state competition experiments, errors within 30%
NB4 cells = details: RA 10 nM in the absence of 6e

Sequence of Human recombinant MAO A (P21397 whole entry, looked up): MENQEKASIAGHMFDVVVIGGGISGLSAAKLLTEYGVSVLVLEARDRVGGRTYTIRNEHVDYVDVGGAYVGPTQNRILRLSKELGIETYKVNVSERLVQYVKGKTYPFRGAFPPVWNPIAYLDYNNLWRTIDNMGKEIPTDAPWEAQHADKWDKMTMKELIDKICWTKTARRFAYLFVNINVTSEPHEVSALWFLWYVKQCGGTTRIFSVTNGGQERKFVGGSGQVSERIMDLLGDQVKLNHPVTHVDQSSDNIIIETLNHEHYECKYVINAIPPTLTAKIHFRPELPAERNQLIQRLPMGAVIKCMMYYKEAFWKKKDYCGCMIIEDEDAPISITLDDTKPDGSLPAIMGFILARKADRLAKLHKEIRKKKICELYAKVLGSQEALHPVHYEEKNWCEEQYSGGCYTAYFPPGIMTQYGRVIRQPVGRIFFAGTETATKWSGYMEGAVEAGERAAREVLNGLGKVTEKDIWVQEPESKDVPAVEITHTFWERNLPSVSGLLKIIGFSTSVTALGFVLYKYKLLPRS
Sequence of Mouse recombinant LSD2 (Q8CIG3 whole entry): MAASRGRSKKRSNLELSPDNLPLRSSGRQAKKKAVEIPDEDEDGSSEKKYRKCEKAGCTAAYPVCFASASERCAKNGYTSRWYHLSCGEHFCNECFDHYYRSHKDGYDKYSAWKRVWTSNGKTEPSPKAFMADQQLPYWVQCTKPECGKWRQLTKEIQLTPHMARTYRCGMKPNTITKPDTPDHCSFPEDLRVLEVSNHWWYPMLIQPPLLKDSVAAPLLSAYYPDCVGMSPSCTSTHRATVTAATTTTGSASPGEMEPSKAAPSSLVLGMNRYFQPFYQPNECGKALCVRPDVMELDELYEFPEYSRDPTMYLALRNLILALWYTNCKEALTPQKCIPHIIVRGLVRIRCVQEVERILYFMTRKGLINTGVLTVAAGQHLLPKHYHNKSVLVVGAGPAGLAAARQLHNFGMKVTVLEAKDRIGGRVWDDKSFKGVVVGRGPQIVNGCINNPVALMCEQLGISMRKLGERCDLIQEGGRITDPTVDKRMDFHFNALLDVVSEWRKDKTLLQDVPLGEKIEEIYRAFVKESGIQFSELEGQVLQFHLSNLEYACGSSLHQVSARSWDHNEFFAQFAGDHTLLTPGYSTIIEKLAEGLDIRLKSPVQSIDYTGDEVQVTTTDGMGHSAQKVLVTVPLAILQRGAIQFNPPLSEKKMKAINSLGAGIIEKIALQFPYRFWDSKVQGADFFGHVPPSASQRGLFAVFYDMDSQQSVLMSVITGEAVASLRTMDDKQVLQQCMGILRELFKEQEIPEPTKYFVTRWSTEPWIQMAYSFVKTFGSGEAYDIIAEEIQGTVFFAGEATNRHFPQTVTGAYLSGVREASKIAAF
Sequence of Human recombinant MAO B (P27338 whole entry): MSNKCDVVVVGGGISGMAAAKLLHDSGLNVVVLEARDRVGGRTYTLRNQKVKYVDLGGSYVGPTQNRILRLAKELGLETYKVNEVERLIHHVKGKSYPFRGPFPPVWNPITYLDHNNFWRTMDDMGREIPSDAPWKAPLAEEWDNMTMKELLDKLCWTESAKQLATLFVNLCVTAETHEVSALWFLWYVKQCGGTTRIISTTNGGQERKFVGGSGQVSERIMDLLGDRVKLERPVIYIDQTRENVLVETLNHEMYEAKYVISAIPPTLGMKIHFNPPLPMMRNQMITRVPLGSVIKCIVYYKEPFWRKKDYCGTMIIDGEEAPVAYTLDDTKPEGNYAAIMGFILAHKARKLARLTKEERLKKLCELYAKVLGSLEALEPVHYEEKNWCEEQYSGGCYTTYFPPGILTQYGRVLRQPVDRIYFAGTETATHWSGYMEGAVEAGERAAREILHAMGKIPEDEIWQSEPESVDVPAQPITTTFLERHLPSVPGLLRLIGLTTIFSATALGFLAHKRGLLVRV

Compound	MAO A inhibition (Human recombinant MAO A)	MAO B inhibition (Human recombinant MAO B)	LSD2 inhibition (Mouse recombinant LSD2)	further results
CC(C)C(NC(=O)OCc1ccccc1)C(=O)Nc1ccc([C@@H]2C[C@H]2N)cc1 (relative stereo) [Compound 6a, trans benzyl 1-(4-(2-aminocyclopropyl)phenylamino)-3-methyl-1-oxobutan-2-ylcarbamate]	+	−	+	LSD1 inhibition [1]: +
N[C@@H]1C[C@H]1c1ccc(NC(=O)c2ccccc2)cc1 (relative stereo) [Compound 5b, trans N-(4-(2-aminocyclopropyl)phenyl)benzamide]				Ki (Mouse recombinant LSD2; 25° C.): 61 µM
CN(C(=O)C(Cc1ccccc1)NC(=O)OCc1ccccc1)c1ccc(C2CC2N)cc1.Cl (stereo not drawn) [Compound 12, trans benzyl 1-((4-(2-aminocyclopropyl)phenyl)(methyl)amino)-1-oxo-3-phenylpropan-2-ylcarbamate]	+	−	+	MAO B Ki (Human recombinant MAO B): no inhibition^d
Cl.N[C@@H]1C[C@H]1c1ccc(NC(=O)CCCCCCC(=O)NO)cc1 (relative stereo) [Compound 9, trans N^1-(4-(2-aminocyclopropyl)phenyl)-N^8-hydroxyoctanediamide]				LSD1 inhibition ([1]; 25° C., 50 mM Hepes/NaOH pH 7.5, max inhibitor concentration 1 mM or saturated solution): +; MAO B inhibition (Human recombinant MAO B; 50 mM Hepes/NaOH pH 7.5, 0.5% reduced Triton X-100, max inhibitor concentration 1 mM or saturated solution): +; LSD2 inhibition (Mouse recombinant LSD2; 25° C., 50 mM Hepes/NaOH pH 8.0, max inhibitor concentration 1 mM or saturated solution): +
CC(C)C(NC(=O)OCc1ccccc1)C(=O)Nc1ccc([C@@H]2C[C@H]2N)cc1 (relative stereo) (as salt: hydrochloride) [Compound 6a, trans benzyl 1-(4-(2-aminocyclopropyl)phenylamino)-3-methyl-1-oxobutan-2-ylcarbamate]				melting point: 168 to 170 °C
N[C@@H]1C[C@H]1c1ccc(NC(=O)OCc2ccccc2)cc1 (relative stereo) [Compound 5a, trans benzyl 4-(2-aminocyclopropyl)phenylcarbamate]				Ki (Mouse recombinant LSD2; 25° C.): 20 µM
Cl.NC1CC1c1ccc(NC(=O)C(Cc2ccccc2)NC(=O)NCc2ccccc2)cc1 (stereo not drawn) [Compound 16, trans N-(4-(2-aminocyclopropyl)phenyl)-2-(3-benzylureido)-3-phenylpropanamide]	+	+	+	melting point: 153 to 155 °C
Cl.NC1CC1c1ccc(NC(=O)C(Cc2ccccc2)NC(=O)OCc2ccc(Br)cc2)cc1 (stereo not drawn) [Compound 7, trans 4-bromobenzyl 1-(4-(2-aminocyclopropyl)phenylamino)-1-oxo-3-phenylpropan-2-ylcarbamate]		−		MAO B Ki (Human recombinant MAO B): no inhibition^d; melting point: 220 to 222 °C
Cl.NC1CC1c1ccc(NC(=O)C(Cc2ccccc2)NC(=O)OCc2ccccc2)cc1 (stereo not drawn) [Compound 8, cis benzyl 1-(4-(2-aminocyclopropyl)phenylamino)-1-oxo-3-phenylpropan-2-ylcarbamate]		−		MAO B Ki (Human recombinant MAO B): no inhibition^d
CC(C)CC(NC(=O)OCc1ccccc1)C(=O)Nc1ccc([C@@H]2C[C@H]2N)cc1 (relative stereo) (as salt: hydrochloride) [Compound 6b, trans benzyl 1-(4-(2-aminocyclopropyl)phenylamino)-4-methyl-1-oxopentan-2-ylcarbamate]				melting point: 158 to 160 °C
trans benzyl 1-(4-(2- aminocycylpropyl)phenylamino)-3- (napththalen-1-yl)-1-oxopropan-2- ylcarbamate [Compound 6j]	+	−	+	LSD1 inhibition [1]: +
CC1=C(/C=C/C(C)=C/C=C/C(C)=C/C(=O)O)C(C)(C)CCC1 [RA, retinoic acid]				differentiating effect of RA alone (NB4 cells): almost totally ineffective
N[C@@H]1C[C@H]1c1ccc(NC(=O)C(Cc2ccccc2)NC(=O)OCc2ccccc2)cc1 (relative stereo) [Compound 6e, trans benzyl 1-(4-(2-aminocyclopropyl)phenylamino)-1-oxo-3-phenylpropan-2-ylcarbamate]				MAO B Ki (Human recombinant MAO B): no inhibition^d
CC(C)CC(NC(=O)OCc1ccccc1)C(=O)Nc1ccc([C@@H]2C[C@H]2N)cc1 (relative stereo) [Compound 6b, trans benzyl 1-(4-(2-aminocyclopropyl)phenylamino)-4-methyl-1-oxopentan-2-ylcarbamate]	+	−	+	LSD1 inhibition [1]: +
